ChEMBL document CHEMBL3832544, “DailyMed|setid=fb8a2e5b-fd23-4977-81de-a95f4af168e2 | ONMEL- itraconazole tablet|Merz Pharmaceuticals, LLC”

Key:
Type in all cases: ADME, organism-based
Set-up in all cases: dose 200 mg, route oral
[1] = (§1) The pharmacokinetic parameters of Itraconazole after single oral administration of 200 mg Itraconzole to 9 male and 9 female healthy subjects in fasting and in fed conditions; conditions: both, human, in vivo, dietary status Fed, dosed compound id 2, dosed compound name ITRACONAZOLE, gender male and female, regimen Single dose, tissue Plasma
Homo sapiens [2] = test: as §1; conditions: in vivo, po, dietary status Fasted, dosed compound id 2, dosed compound name ITRACONAZOLE, gender male and female, regimen Single dose, tissue Plasma
[3] = (§2) The steady-state pharmacokinetics of itraconazole analyzed after multiple oral dosing of 16 healthy volunteers with 200 mg Itraconazole following a moderate-fat breakfast once daily for 14 days in an open-label study; conditions: human, in vivo, dietary status Fed with moderate-fat breakfast, dose 200 mg, dosed compound id 2, dosed compound name ITRACONAZOLE, gender male and female, regimen Multiple dose, route oral, tissue Plasma
Homo sapiens [4] = test: as §2; conditions: in vivo, po, 336 h, dietary status Fed with moderate-fat breakfast, dosed compound id 2, dosed compound name ITRACONAZOLE, gender male and female, regimen Multiple dose, tissue Plasma

Q: Which Cmax ([1]; po, 200 mg) does the source give for `CCC(C)n1ncn(-c2ccc(N3CCN(c4ccc(OCC5COC(Cn6cncn6)(c6ccc(Cl)cc6Cl)O5)cc4)CC3)cc2)c1=O` (configuration not stated) [ITRACONAZOLE] here?
A: The Cmax was 213 ng/mL.

Q: And the AUC ([1]; po, 200 mg, read-out: AUC(0-inf))?
A: Its AUC is 3340 ng·h/mL.

Q: And the Tmax ([1]; dose 200 mg, route oral)?
A: The Tmax was 4.6 h.

Q: And the Tmax (Homo sapiens [2]; dose 200 mg)?
A: Its Tmax is 2.9 h.

Q: And the “AUC(0-inf)” value (Homo sapiens [2])?
A: The value was 2270 ng·h/mL.

Q: And the Cmax (Homo sapiens [2])?
A: Its Cmax is 162 ng/mL.

Q: What about the Tmax ([3]; study dosing duration 1 day) of the same molecule?
A: Its Tmax is 4 h.

Q: What about the half-life ([3]; study dosing duration 14 day, read-out: t1/2 ss (converted)) of the same molecule?
A: The half-life was 36.8 h.

Q: And the “AUC(0-24)” value (Homo sapiens [4]; study dosing duration 1 day)?
A: The value was 905.09 ng·h/mL.

Q: And the Cmax ss (Homo sapiens [4]; study dosing duration 1 day)?
A: The Cmax ss was 116.8 ng/mL.

Q: And the “AUC(0-24)” value (Homo sapiens [4]; study dosing duration 14 day)?
A: The value was 9046.81 ng·h/mL.

Q: What about the Cmax ss (Homo sapiens [4]; study dosing duration 14 day) of the same molecule?
A: The Cmax ss was 658.1 ng/mL.
